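Method: 48-hour compound exposure of cells in 96-well plates, five concentrations, linear interpolation of endpoints. GI50 marks 50% less growth. TGI denotes the concentration required for complete inhibition of growth.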
Experiments:
Assay in all cases: NCI tumour cell line growth inhibition, 48 h
SNB-75 CNS = tested on: SNB-75 CNS
OVCAR-5 ovarian = tested on: OVCAR-5 ovarian
HL-60(TB) leukemia = tested on: HL-60(TB) leukemia
MOLT-4 leukemia = tested on: MOLT-4 leukemia
UACC-62 melanoma = tested on: UACC-62 melanoma
MALME-3M melanoma = tested on: MALME-3M melanoma
T-47D breast = tested on: T-47D breast
MDA-MB-435 = tested on: MDA-MB-435
DU-145 prostate = tested on: DU-145 prostate
BT-549 breast = tested on: BT-549 breast

`CC(C)(C)NN=C1C(C)(C)C(=NNC(C)(C)C)C1(C)C` was tested, and the TGI (SNB-75 CNS) was over 100 µM, the TGI (OVCAR-5 ovarian) was over 100 µM and the TGI (HL-60(TB) leukemia) was over 100 µM. For the same compound, the TGI (MOLT-4 leukemia) was over 100 µM, the TGI (UACC-62 melanoma) was over 100 µM and the TGI (MALME-3M melanoma) was over 100 µM.

`CSC(C1c2ccccc2N(C)C2=NC(=O)N(C)C(=O)C21Cl)S(=O)(=O)c1ccc(C)cc1` (configuration not stated) showed a TGI (SNB-75 CNS) of 75.9 µM, a TGI (OVCAR-5 ovarian) of over 100 µM and a TGI (HL-60(TB) leukemia) of 39.7 µM. It also gave a TGI (MOLT-4 leukemia) of 40.8 µM, a TGI (UACC-62 melanoma) of over 100 µM and a TGI (MALME-3M melanoma) of over 100 µM.

Work on `Cc1ccc(C2NC(=S)NC3=C2CCOc2c3ccc3ccccc23)cc1` (configuration not stated) yielded a GI50 (SNB-75 CNS) of over 100 µM, a TGI (SNB-75 CNS) of over 100 µM and a GI50 (OVCAR-5 ovarian) of over 100 µM. The TGI (OVCAR-5 ovarian) was over 100 µM, the GI50 (T-47D breast) was 35.7 µM and the TGI (T-47D breast) was over 100 µM. It also gave a GI50 (HL-60(TB) leukemia) of 5.86 µM, a TGI (HL-60(TB) leukemia) of over 100 µM and a GI50 (MOLT-4 leukemia) of 7.97 µM. For the same compound, the TGI (MOLT-4 leukemia) was over 100 µM, the GI50 (MDA-MB-435) was 2.78 µM and the TGI (MDA-MB-435) was over 100 µM. The GI50 (MALME-3M melanoma) was 2.98 µM and the TGI (MALME-3M melanoma) was 7.73 µM.

In the case of `COC1=CC(O)(CC(N)=O)c2ccccc2C1=O` (configuration not stated), the TGI (SNB-75 CNS) is reported as over 100 µM, the TGI (OVCAR-5 ovarian) is reported as over 100 µM and the TGI (HL-60(TB) leukemia) is reported as over 100 µM. For the same compound, the TGI (MOLT-4 leukemia) was over 100 µM, the TGI (UACC-62 melanoma) was over 100 µM and the TGI (MALME-3M melanoma) was over 100 µM.

Work on `COc1ccc(C2=NNC(=O)OC2c2ccccc2)cc1` (configuration not stated) yielded a TGI (SNB-75 CNS) of over 100 µM, a TGI (OVCAR-5 ovarian) of over 100 µM and a TGI (HL-60(TB) leukemia) of over 100 µM. The TGI (MOLT-4 leukemia) was over 100 µM, the TGI (UACC-62 melanoma) was over 100 µM and the TGI (MALME-3M melanoma) was over 100 µM.

For `CC/C=C1\N=C(c2ccc(Cl)cc2)OC1=O`, the TGI (SNB-75 CNS) was over 100 µM, the TGI (OVCAR-5 ovarian) was over 100 µM and the TGI (HL-60(TB) leukemia) was over 100 µM. It also gave a TGI (MOLT-4 leukemia) of over 100 µM, a TGI (UACC-62 melanoma) of over 100 µM and a TGI (MALME-3M melanoma) of over 100 µM.

`COc1cc2c(cc1OC)-c1cc3cc(OC)c(OC)cc3n1CC2` showed a TGI (SNB-75 CNS) of 50.5 µM, a TGI (OVCAR-5 ovarian) of over 100 µM and a TGI (HL-60(TB) leukemia) of over 100 µM. The TGI (MOLT-4 leukemia) was over 100 µM, the TGI (UACC-62 melanoma) was over 100 µM and the TGI (MALME-3M melanoma) was 72.6 µM.

Work on `C=C/C=C(\NC(=O)C(Cl)(Cl)Cl)[Si](C)(C)C` yielded a TGI (SNB-75 CNS) of over 100 µM, a TGI (OVCAR-5 ovarian) of over 100 µM and a TGI (HL-60(TB) leukemia) of over 100 µM. The TGI (MOLT-4 leukemia) was over 100 µM, the TGI (UACC-62 melanoma) was over 100 µM and the TGI (MALME-3M melanoma) was over 100 µM.

With `Cc1cc(N(CCC#N)S(C)(=O)=O)ccc1C=O` the TGI (SNB-75 CNS) was over 100 µM, the TGI (OVCAR-5 ovarian) was over 100 µM and the TGI (HL-60(TB) leukemia) was over 100 µM. It also gave a TGI (MOLT-4 leukemia) of over 100 µM, a TGI (UACC-62 melanoma) of over 100 µM and a TGI (MALME-3M melanoma) of over 100 µM.

In the case of `N#CC(C(=O)/C(=N\Nc1nc(=S)[nH]n1N)C(C#N)c1ccc(Cl)cc1)c1ccc(Cl)cc1` (configuration not stated), the TGI (SNB-75 CNS) is reported as over 100 µM, the TGI (OVCAR-5 ovarian) is reported as over 100 µM and the TGI (UACC-62 melanoma) is reported as over 100 µM. It also gave a TGI (MALME-3M melanoma) of over 100 µM.

Compound `CCCN(CCCC(NC(C)=O)C(=O)NCc1ccccc1)C(=O)NC` (configuration not stated) has a TGI (SNB-75 CNS) of 75.3 µM, a TGI (OVCAR-5 ovarian) of over 100 µM and a TGI (MOLT-4 leukemia) of over 100 µM. For the same compound, the TGI (UACC-62 melanoma) was over 100 µM and the TGI (MALME-3M melanoma) was over 100 µM.

In the case of `CC(=O)N1CC(Nc2ccc(OC(F)(F)F)cc2)=CC1=O`, the GI50 (SNB-75 CNS) is reported as 1.59 µM, the TGI (SNB-75 CNS) is reported as 7.59 µM and the GI50 (OVCAR-5 ovarian) is reported as over 100 µM. It also gave a TGI (OVCAR-5 ovarian) of over 100 µM, a GI50 (DU-145 prostate) of 3.76 µM and a TGI (DU-145 prostate) of over 100 µM. It also gave a GI50 (HL-60(TB) leukemia) of 0.842 µM, a TGI (HL-60(TB) leukemia) of over 100 µM and a GI50 (MOLT-4 leukemia) of 4.21 µM. For the same compound, the TGI (MOLT-4 leukemia) was over 100 µM, the GI50 (MDA-MB-435) was 0.195 µM and the TGI (MDA-MB-435) was 0.439 µM. For the same compound, the GI50 (UACC-62 melanoma) was 0.821 µM, the TGI (UACC-62 melanoma) was over 100 µM and the GI50 (MALME-3M melanoma) was 61.5 µM. It also gave a TGI (MALME-3M melanoma) of over 100 µM, a GI50 (BT-549 breast) of 4.16 µM and a TGI (BT-549 breast) of over 100 µM.

`COc1ccc(/C(=N/NC(=O)NN)C(c2ccc(OC)cc2)C2(O)CNc3c(Cl)cc(Cl)cc32)cc1` (configuration not stated) gave a TGI (SNB-75 CNS) of over 100 µM, a TGI (OVCAR-5 ovarian) of over 100 µM and a TGI (HL-60(TB) leukemia) of over 100 µM. It also gave a TGI (MOLT-4 leukemia) of over 100 µM, a TGI (UACC-62 melanoma) of over 100 µM and a TGI (MALME-3M melanoma) of over 100 µM.

With `O=C(CC1(O)C(=O)Nc2ccccc21)c1ccccc1Cl` (configuration not stated) the TGI (SNB-75 CNS) was over 100 µM, the TGI (OVCAR-5 ovarian) was over 100 µM and the TGI (HL-60(TB) leukemia) was over 100 µM. The TGI (MOLT-4 leukemia) was over 100 µM, the TGI (UACC-62 melanoma) was over 100 µM and the TGI (MALME-3M melanoma) was over 100 µM.

`COC1(OC)CC2C=C(S(=O)(=O)c3ccccc3)C1N(Cc1ccccc1)C2=O` (configuration not stated) gave a TGI (SNB-75 CNS) of over 100 µM, a TGI (HL-60(TB) leukemia) of 50.5 µM and a TGI (MOLT-4 leukemia) of over 100 µM. The TGI (UACC-62 melanoma) was 58.4 µM and the TGI (MALME-3M melanoma) was over 100 µM.

For `Cn1c2c(c3ccccc31)C1CCCCC1C1C(=O)NC(=O)C21` (configuration not stated), the TGI (SNB-75 CNS) was 71.3 µM, the TGI (OVCAR-5 ovarian) was over 100 µM and the TGI (HL-60(TB) leukemia) was 63.5 µM. For the same compound, the TGI (MOLT-4 leukemia) was 67.5 µM, the TGI (UACC-62 melanoma) was over 100 µM and the TGI (MALME-3M melanoma) was over 100 µM.

`COc1ccc(/C(Cl)=C(\C=O)c2ccc([N+](=O)[O-])cc2)cc1OC` was tested, and the TGI (SNB-75 CNS) was 20 µM, the TGI (OVCAR-5 ovarian) was over 100 µM and the TGI (T-47D breast) was over 100 µM. For the same compound, the TGI (DU-145 prostate) was over 100 µM, the TGI (HL-60(TB) leukemia) was 11.6 µM and the TGI (MOLT-4 leukemia) was over 27.4 µM. The TGI (MDA-MB-435) was 13.5 µM, the TGI (UACC-62 melanoma) was 16.2 µM and the TGI (MALME-3M melanoma) was 41 µM.

`Cc1ccc(NC(=O)c2cccc([N+](=O)[O-])c2O)c([N+](=O)[O-])c1` showed a TGI (SNB-75 CNS) of 29.4 µM, a TGI (OVCAR-5 ovarian) of 39.4 µM and a TGI (HL-60(TB) leukemia) of over 100 µM. The TGI (UACC-62 melanoma) was 24.8 µM and the TGI (MALME-3M melanoma) was 30.8 µM.

For `O=C(CO)CC(=O)C(=O)Nc1nc([N+](=O)[O-])cs1`, the TGI (SNB-75 CNS) was over 100 µM, the TGI (OVCAR-5 ovarian) was over 100 µM and the TGI (HL-60(TB) leukemia) was over 100 µM. For the same compound, the TGI (MOLT-4 leukemia) was over 100 µM, the TGI (UACC-62 melanoma) was over 100 µM and the TGI (MALME-3M melanoma) was over 100 µM.

For `COc1cc2c(cc1OCCOS(C)(=O)=O)N=C[C@@H]1CCCN1C2=O`, the TGI (SNB-75 CNS) was over 100 µM, the TGI (T-47D breast) was over 100 µM and the TGI (DU-145 prostate) was over 100 µM. The TGI (HL-60(TB) leukemia) was 55.9 µM, the TGI (MOLT-4 leukemia) was 65.8 µM and the TGI (MDA-MB-435) was 37.7 µM. For the same compound, the GI50 (UACC-62 melanoma) was 19.4 µM, the TGI (UACC-62 melanoma) was 42.5 µM and the GI50 (MALME-3M melanoma) was 13.6 µM. It also gave a TGI (MALME-3M melanoma) of 31.6 µM.

From PubChem BioAssay (NCI)
